Data as given in ChEMBL document CHEMBL6120941, “Discovery of SIRT1-Activating Hydrogen Sulfide Donating Derivatives for Efficient Resistant of Myocardial Ischemic Injury” (J Med Chem, 2024).
The source made the active and inactive calls. No cut-off for these calls is given here.

Experiments:
H9c2 [1] = experiment: Cardioprotective activity against CoCl2-induced cellular hypoxia injury in rat H9c2 cells assessed as cell viability at 0.625 uM incubated for 24 hrs by CCK-8 assay (reference value: 51.80 +/- 2.58 %); format: functional; conditions: read-out: Activity
H9c2 [2] = experiment: Cardioprotective activity against CoCl2-induced cellular hypoxia injury in rat H9c2 cells assessed as cell viability at 2.5 uM incubated for 24 hrs by CCK-8 assay (reference value: 51.80 +/- 2.58 %); format: functional; conditions: read-out: Activity
H9c2 [3] = experiment: Cardioprotective activity against CoCl2-induced cellular hypoxia injury in rat H9c2 cells assessed as cell viability at 5 uM incubated for 24 hrs by CCK-8 assay (reference value: 51.80 +/- 2.58 %); format: functional; conditions: read-out: Activity
H9c2 [4] = experiment: Cardioprotective activity against CoCl2-induced cellular hypoxia injury in rat H9c2 cells assessed as increase in cell viability at 30 uM incubated for 24 hrs by CCK-8 assay; format: functional, cell-based
H9c2 [5] = experiment: Cardioprotective activity against CoCl2-induced cellular hypoxia injury in rat H9c2 cells assessed as cell viability at 1.25 uM incubated for 24 hrs by CCK-8 assay (reference value: 51.80 +/- 2.58 %); format: functional; conditions: read-out: Activity
H9c2 [6] = experiment: Cardioprotective activity against CoCl2-induced cellular hypoxia injury in rat H9c2 cells assessed as cell viability at 10 uM incubated for 24 hrs by CCK-8 assay (reference value: 51.80 +/- 2.58 %); format: functional; conditions: read-out: Activity

| Compound | viability at 0.625 µM (H9c2 [1]) [%] | viability at 2.5 µM (H9c2 [2]) [%] | viability at 5 µM (H9c2 [3]) [%] | Activity (H9c2 [4]) | viability at 1.25 µM (H9c2 [5]) [%] | viability at 10 µM (H9c2 [6]) [%] |
| --- | --- | --- | --- | --- | --- | --- |
| CC(C)(O)[C@H]1CC[C@@](C)([C@H]2CC[C@]3(C)[C@@H]2[C@H](O)C[C@@H]2[C@@]4(C)CC[C@H](OC(=O)CCC(=O)Oc5ccc(-c6nc(=O)ss6)cc5)C(C)(C)[C@@H]4[C@@H](O)C[C@]23C)O1 | 65.7 | 76 | 77.3 | inactive | 72.5 | 81.5 |
| CC(C)(O)[C@H]1CC[C@@](C)([C@H]2CC[C@]3(C)[C@@H]2[C@H](O)C[C@@H]2[C@@]4(C)CC[C@H](OC(=O)c5ccc(N=C=S)cc5)C(C)(C)[C@@H]4CC[C@]23C)O1 | 59.9 | 67.3 | 68.3 | inactive | 61.6 | 72.9 |
| C=CCSSCCC(=O)O[C@H]1CC[C@]2(C)[C@H]3C[C@@H](O)[C@@H]4[C@@H]([C@]5(C)CC[C@H](C(C)(C)O)O5)CC[C@@]4(C)[C@]3(C)C[C@H](O)[C@H]2C1(C)C | 68.1 | 62.9 | 66.5 | inactive | 64.5 | 69.7 |
| CC(C)(O)[C@@H]1CC[C@@](C)([C@H]2CC[C@]3(C)[C@@H]2[C@H](O)C[C@@H]2[C@@]4(C)CC[C@H](OC(=O)CCC(=O)Oc5ccc(-c6cc(=S)ss6)cc5)C(C)(C)[C@@H]4[C@@H](O)C[C@]23C)O1 | 68.4 | 76.9 | 77.2 | inactive | 73.6 | 75.2 |
| C=CCSSCCC(=O)O[C@H]1CC[C@]2(C)[C@H]3C[C@@H](O)[C@@H]4[C@@H]([C@@](C)(O)CCC=C(C)C)CC[C@@]4(C)[C@]3(C)C[C@H](O)[C@H]2C1(C)C | 49 | 64.4 | 63.1 | inactive | 58.4 | 65.7 |
| C=CCSSCCC(=O)O[C@H]1CC[C@]2(C)[C@H]3C[C@@H](O)[C@@H]4[C@@H]([C@@](C)(O)CCC=C(C)C)CC[C@@]4(C)[C@]3(C)CC[C@H]2C1(C)C | 46 | 42.5 | 60.6 | inactive | 50.8 | 62.7 |
| CC(C)=CCC[C@](C)(O)[C@H]1CC[C@]2(C)[C@@H]1[C@H](O)C[C@@H]1[C@@]3(C)CC[C@H](OC(=O)c4ccc(N=C=S)cc4)C(C)(C)[C@@H]3[C@@H](O)C[C@]12C | 50.9 | 54 | 56.6 | inactive | 55.2 | 54.8 |
| CC(C)=CCC[C@](C)(O)[C@H]1CC[C@]2(C)[C@@H]1[C@H](O)C[C@@H]1[C@@]3(C)CC[C@H](O)C(C)(C)[C@@H]3CC[C@]12C | 52.5 | 67.5 | 67.5 | inactive | 63 | 68.8 |
| O=C(O)CCC(=O)Oc1ccc(-c2cc(=S)ss2)cc1 | 66.4 | 74.3 | 77.6 | inactive | 67.4 | 80.3 |
| C=CCSSCCC(=O)O[C@H]1CC[C@]2(C)[C@H]3C[C@@H](O)[C@@H]4[C@@H]([C@]5(C)CC[C@H](C(C)(C)O)O5)CC[C@@]4(C)[C@]3(C)CC[C@H]2C1(C)C | 65.7 | 73.6 | 76.9 | inactive | 72.3 | 74.2 |
| CC(C)(O)[C@H]1CC[C@@](C)([C@H]2CC[C@]3(C)[C@@H]2[C@H](O)C[C@@H]2[C@@]4(C)CC[C@H](O)C(C)(C)[C@@H]4[C@@H](O)C[C@]23C)O1 | 56.5 | 57 | 55.6 | inactive | 55.6 | 61.5 |
| CC(C)(O)[C@@H]1CC[C@@](C)([C@H]2CC[C@]3(C)[C@@H]2[C@H](O)C[C@@H]2[C@@]4(C)CC[C@H](OC(=O)CCC(=O)Oc5ccc(-c6cc(=S)ss6)cc5)C(C)(C)[C@@H]4CC[C@]23C)O1 | 68.4 | 79.6 | 80 | inactive | 71.4 | 82.2 |
